Patent US9179668B2, “Use of glycerol ethers as activators of the biological effects of a herbicide, fungicide or insecticide substance” (FONDS DE DEVELOPPEMENT DES FILIERES DES OLEAGINEUX ET …, priority 2009, dated 2015)

Columns and labels:
[1] = system: herbaceous plants; test: Spraying of herbicide solutions on 50×50 cm plots of land with herbaceous plants; deterioration of the vegetation observed; format: in vivo
Protocol: The following tests were carried out on plots of land of 50×50 cm on which herbaceous plants occur. Each of the solutions tested is sprayed over a plot which is assigned to it.
The time necessary for the complete destruction of the vegetation was compared, on similar plots planted with herbaceous plants, with a herbicide alone, on the one hand, and the same herbicide to which has been added a glycerol ether: 3-methyloxypropane-1,2-diol, on the other hand.
A solution comprising 6 g/l of glyphosate (in the acid form) was sprayed over plot 1 in a proportion of 36 grams to the m^2.
A solution comprising […] and 0.9 g/l of 3-methyl-oxypropane-1,2-diol was sprayed over plot 2 in a proportion of 36 grams to the m^2.
The following sprayings were carried out on 4 plots covered with herbaceous plants: • Plot 1: glyphosate at 6 g/l (36 g of the solution to the m^2) • Plot 2: glyphosate at 4.5 g/l (36 g of the solution to the m^2) • Plot 3: a solution of glyphosate at 1.5 g/l 3-pentyloxypropane-1,2-diol at 0.9 g/l, in a proportion of 36 g of the solution to the m^2. • Plot 4: a solution of glyphosate at […] 3-pentyloxypropane-1,2-diol at 0.9 g/l, in a proportion of 36 g of the solution to the m^2.

[2] = system: Candida albicans; test: Candida albicans on agar in a Petri dish with impregnated blotting paper disks; inhibition regions observed; format: cell-based
Description: In the following examples, the Candida albicans test strain used is sold under the reference ATCC 10231, Collection Institut Pasteur.
A Candida albicans strain was inoculated on agar in a Petri dish. Disks of blotting paper impregnated with the following solutions were subsequently deposited at its surface:
• disk 1 is impregnated with a solution comprising […] • disk 2 is impregnated with a solution comprising 0.5 g/l of mancozeb • disk 3 is impregnated with a solution comprising 0.2 g/l of mancozeb • disk 4 is impregnated with a solution comprising 0.2 g/l of mancozeb and 0.1 g/l of 3-butyloxypropane-1,2-diol.

[3] = system: Lucilia caesar; test: Spraying of insecticide solution on 30 flies in a cage; degree of mortality; format: in vivo; details: 1.8 g of solution; for degree of mortality: diflubenzuron 39.0 mg/l + glycerol ether 47.0 mg/l (cage 2)
Protocol: 30 flies of the species Lucilia caesar were introduced into each of the cages made with a cubic frame from lengths of wood and mosquito screens. One of the faces was pierced with a hole through which a sprayer for the test solution is introduced: • in cage 1, 1.8 g of a solution comprising 39.0 mg/l of diflubenzuron were sprayed • in cage 2, 1.8 g of a solution comprising 39.0 mg/l of diflubenzuron and 47.0 mg/l of 3-isopropyloxypropane-1,2-diol were sprayed.

[4] = system: Sitobion avenae; test: Spraying of insecticide solution on 25 aphids in a Petri dish; degree of mortality; format: in vivo; details: read-out: degree of mortality
Protocol: The aphids of the species Sitobion avenae used in the following examples were supplied by the Université de Picardie d'Amiens [University of Picardy of Amiens], laboratoire de biologie des plantes et contrôle des insectes ravageurs [Plant Biology and Insect Pest Control Laboratory], EA3900, 33, rue Saint Leu, Amiens 80000.
25 aphids of the species Sitobion avenae were introduced into a Petri dish into which the test solution was sprayed: • in dish 1, 1.8 g of a solution comprising 39.0 mg/l of diflubenzuron were sprayed; • in dish 2, 1.8 g of a solution comprising 39.0 mg/l of diflubezuron and 47.0 mg/l of 3-isopropyloxypropane-1,2-diol were sprayed.

[5] = glyphosate 6 g/l + glycerol ether 0.9 g/l, 36 g of solution per m^2 (plot 2)
[6] = glyphosate 1.5 g/l + glycerol ether 0.9 g/l, 36 g of solution per m^2
[7] = glyphosate 3 g/l + glycerol ether 0.9 g/l, 36 g of solution per m^2
[8] = glyphosate 6 g/l alone, 36 g of solution per m^2 (plot 1)

Row | Compound | time after which deterioration began [1, 5] | time after which deterioration was complete [1, 5] | state of plot after 30 days [1, 6] | state of plot after 30 days [1, 7] | further results
1 | CCOCC(O)COCC [1,3-diethyloxypropan-2-ol] | 4 days | 13 days |  |  | 
2 | COCC(O)COC [1,3-dimethyloxypropan-2-ol] | 4 days | 15 days |  |  | 
3 | CCCCC(CC)COCC(O)CO (centres unmarked) [3-(2-ethylhexyloxy)propane-1,2-diol] | 3 days | 11 days | unaffected | completely deteriorated | inhibition region of growth around the disk ([2]; mancozeb 0.2 g/l + glycerol ether 0.05 g/l (disk 4)): circular regions of inhibition of the growth; degree of mortality [3]: 56%
4 | CCCCOCC(O)CO (centres unmarked) [3-butyloxypropane-1,2-diol] | 3 days | 10 days | unaffected | completely deteriorated | inhibition region of growth around the disk ([2]; mancozeb 0.2 g/l + glycerol ether 0.1 g/l (disk 4)): circular regions of inhibition of the growth
5 | CCCCCCCCCCOCC(O)CO (centres unmarked) [3-decyloxypropane-1,2-diol] | 4 days | 11 days |  |  | 
6 | CCOCC(O)CO (centres unmarked) [3-ethyloxypropane-1,2-diol] | 3 days | 11 days |  |  | 
7 | CCCCCCOCC(O)CO (centres unmarked) [3-hexyloxypropane-1,2-diol] | 3 days | 10 days | unaffected | completely deteriorated | 
8 | CC(C)CCCCCCOCC(O)CO (centres unmarked) [3-isononyloxypropane-1,2-diol] |  |  | unaffected | completely deteriorated | 
9 | CC(C)OCC(O)CO (centres unmarked) [3-isopropyloxypropane-1,2-diol] | 3 days | 12 days | unaffected | completely deteriorated | degree of mortality [3]: 64%
10 | COCC(O)CO (centres unmarked) [3-methyloxypropane-1,2-diol] | 4 days | 13 days |  |  | 
11 | CCCCCOCC(O)CO (centres unmarked) [3-pentyloxypropane-1,2-diol] | 3 days | 10 days | completely deteriorated |  | inhibition region of growth around the disk ([2]; mancozeb 0.2 g/l + glycerol ether 0.25 g/l (disk 4)): circular regions of inhibition of the growth; state of plot after 30 days ([1]; glyphosate 0.75 + glycerol ether 0.9 g/l, 36 g of solution per m^2): unaffected
12 | O=C(NC(=O)c1c(F)cccc1F)Nc1ccc(Cl)cc1 [diflubenzuron, reference compound] |  |  |  |  | mortality at 39 µg/mL [4]: 21%; mortality at 39 µg/mL ([3]; Lucilia caesar, diflubenzuron 39.0 mg/l alone (cage 1)): 29%
13 | O=C(O)CNCP(=O)(O)O [glyphosate, reference compound] |  |  |  |  | state of plot after 30 days ([1]; glyphosate 4.5 g/l alone, 36 g of solution per m^2 (plot 2)): unaffected; state of plot after 30 days [1, 8]: completely deteriorated; time after which deterioration began [1, 8]: 8 days; time after which deterioration was complete [1, 8]: 18 days
14 | Cc1nc(N(C)C)nc(OC(=O)N(C)C)c1C [pirimicarb] |  |  |  |  | mortality at 78.1 µg/mL [4]: 16%
15 | mancozeb [reference compound] |  |  |  |  | inhibition region of growth around the disk ([2]; mancozeb 0.2 g/l alone (disk 3)): absence was observed of an inhibition region; inhibition region of growth around the disk ([2]; mancozeb 0.5 g/l alone (disk 2)): absence was observed of an inhibition region; inhibition region of growth around the disk ([2]; mancozeb 0.8 g/l alone (disk 1)): circular regions of inhibition of the growth
